Measurements from patent publication US10822339B2, “Pyrrolopyrimidine five-membered azacyclic derivative and application thereof” (HANGZHOU HUADONG MEDICINE GROUP BIOPHARMACEUTICAL CO. LTD, priority 2016, dated 2020).
Where two headings read alike, the source gives them in different places.

How the values were obtained:
hERG = target: T1, hERG (Homo sapiens, UniProt Q12809); experiment: Whole cell hERG potassium channel current blocking, automatic patch clamp; type: cell-based; conditions: HEK293 cells expressing hERG stably
T1 construct: expressed in transfected cells; host or cells: HEK293
T1 sequence (Q12809 whole entry): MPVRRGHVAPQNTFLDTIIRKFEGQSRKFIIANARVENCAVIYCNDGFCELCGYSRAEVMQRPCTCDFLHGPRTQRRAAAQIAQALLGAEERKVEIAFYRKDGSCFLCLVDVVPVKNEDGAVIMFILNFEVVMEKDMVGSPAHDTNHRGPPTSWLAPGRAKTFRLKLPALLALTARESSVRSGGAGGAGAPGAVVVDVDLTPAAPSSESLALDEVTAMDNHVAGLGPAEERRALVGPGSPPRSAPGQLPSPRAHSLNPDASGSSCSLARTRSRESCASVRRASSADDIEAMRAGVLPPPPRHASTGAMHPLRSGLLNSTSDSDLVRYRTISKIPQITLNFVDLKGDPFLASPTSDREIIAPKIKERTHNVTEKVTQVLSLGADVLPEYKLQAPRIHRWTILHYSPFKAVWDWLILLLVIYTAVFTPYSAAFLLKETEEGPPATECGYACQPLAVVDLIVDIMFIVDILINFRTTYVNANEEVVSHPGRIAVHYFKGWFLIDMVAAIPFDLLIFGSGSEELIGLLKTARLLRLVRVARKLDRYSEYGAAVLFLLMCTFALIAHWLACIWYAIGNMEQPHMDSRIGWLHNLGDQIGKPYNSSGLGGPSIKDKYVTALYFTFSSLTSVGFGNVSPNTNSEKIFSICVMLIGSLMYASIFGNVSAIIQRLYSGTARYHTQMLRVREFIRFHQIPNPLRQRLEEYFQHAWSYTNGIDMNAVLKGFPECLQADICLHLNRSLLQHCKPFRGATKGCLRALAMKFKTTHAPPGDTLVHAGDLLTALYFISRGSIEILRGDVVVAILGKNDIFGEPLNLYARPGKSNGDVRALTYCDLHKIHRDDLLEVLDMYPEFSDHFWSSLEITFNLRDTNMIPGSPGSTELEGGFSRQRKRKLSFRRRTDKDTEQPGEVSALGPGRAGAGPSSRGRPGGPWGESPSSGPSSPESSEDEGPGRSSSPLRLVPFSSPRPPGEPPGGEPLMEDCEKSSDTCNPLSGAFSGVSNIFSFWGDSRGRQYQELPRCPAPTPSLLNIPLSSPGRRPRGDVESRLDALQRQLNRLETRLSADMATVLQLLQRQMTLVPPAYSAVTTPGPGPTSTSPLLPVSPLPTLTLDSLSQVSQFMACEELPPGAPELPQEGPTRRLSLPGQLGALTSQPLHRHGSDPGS
Excerpt: Potassium channel current blocking percentage of whole cell hERG by the compounds of the present invention is studied using HEK293 cells expressing hERG stably and automatic patch clamp system detection method, the dose-effect relationship curve was obtained. The positive drug is Cisapride.

[1] = system: adjuvant-induced arthritis; experiment: Rat adjuvant-induced arthritis efficacy model; type: in vivo; conditions: oral; for animal clinical scores / paw volumes: dose groups of 10 mg/kg and 15 mg/kg; for animal body weight increase versus vehicle group: treatment groups, 14 days dosing
[2] = Toxic side effects experiment, 14 days repeated dosing; conditions: for toxic side effects: rat, in vivo; for organ tissues, blood biochemical parameters versus vehicle control group: once daily 30 mg/kg/day for 14 days
Method: The toxic side effects of the compounds of the present invention (Ia and Ib) were studied. The rats were administered once daily at 30 mg/kg/day for 14 days consecutively.

JAK1 = JAK1 (Homo sapiens, UniProt P23458); experiment: Enzyme activity inhibition, Caliper Mobility Shift Assay; type: biochemical; conditions: read-out: Kinase inhibitory activity (IC50, nM) JAK1
Chain of JAK1 (P23458 whole entry): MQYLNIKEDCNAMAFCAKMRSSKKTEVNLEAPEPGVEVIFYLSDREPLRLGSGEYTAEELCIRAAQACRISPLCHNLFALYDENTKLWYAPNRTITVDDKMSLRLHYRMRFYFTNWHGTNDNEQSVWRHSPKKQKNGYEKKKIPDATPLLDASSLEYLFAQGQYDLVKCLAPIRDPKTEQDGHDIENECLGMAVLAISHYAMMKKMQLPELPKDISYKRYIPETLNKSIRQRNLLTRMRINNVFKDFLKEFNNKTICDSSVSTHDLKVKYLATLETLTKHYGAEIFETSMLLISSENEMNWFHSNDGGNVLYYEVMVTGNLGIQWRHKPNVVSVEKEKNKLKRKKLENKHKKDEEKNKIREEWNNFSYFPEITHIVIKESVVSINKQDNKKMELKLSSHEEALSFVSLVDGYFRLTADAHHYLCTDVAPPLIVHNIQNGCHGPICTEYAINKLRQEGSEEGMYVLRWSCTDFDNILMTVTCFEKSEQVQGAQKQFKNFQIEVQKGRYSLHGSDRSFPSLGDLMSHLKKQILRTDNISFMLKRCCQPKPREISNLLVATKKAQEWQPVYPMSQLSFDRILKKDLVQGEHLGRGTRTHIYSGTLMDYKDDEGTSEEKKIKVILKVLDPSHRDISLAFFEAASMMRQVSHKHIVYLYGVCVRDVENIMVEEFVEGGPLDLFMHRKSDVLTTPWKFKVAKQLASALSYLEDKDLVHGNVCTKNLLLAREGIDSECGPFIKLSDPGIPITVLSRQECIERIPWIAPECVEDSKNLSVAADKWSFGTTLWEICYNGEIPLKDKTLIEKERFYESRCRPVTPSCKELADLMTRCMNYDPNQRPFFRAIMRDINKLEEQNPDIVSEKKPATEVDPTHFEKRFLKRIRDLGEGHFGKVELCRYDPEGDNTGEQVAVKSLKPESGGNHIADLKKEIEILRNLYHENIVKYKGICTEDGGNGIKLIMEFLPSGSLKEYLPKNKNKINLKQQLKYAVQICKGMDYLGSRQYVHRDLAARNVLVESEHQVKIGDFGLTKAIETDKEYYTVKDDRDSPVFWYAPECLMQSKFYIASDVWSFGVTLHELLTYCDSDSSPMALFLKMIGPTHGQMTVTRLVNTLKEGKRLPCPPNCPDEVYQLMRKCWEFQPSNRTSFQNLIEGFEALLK
Method: (§1) The semi-inhibitory concentration IC50 of the compounds (the concentration of the compounds required to inhibit enzyme activity to 50%) is determined by the immobilized enzyme mixed with a specific substrate and different concentrations of the test compounds. The determination method used was a Caliper Mobility Shift Assay. The kinases determined were JAK1, JAK2, JAK3 and TYK2. The standard reference compound used was staurosporine.

JAK2 = JAK2 (Homo sapiens, UniProt O60674); experiment: as above; type: biochemical; conditions: for IC50: read-out: Kinase inhibitory activity (IC50, nM) JAK2
Chain of JAK2 (O60674 whole entry): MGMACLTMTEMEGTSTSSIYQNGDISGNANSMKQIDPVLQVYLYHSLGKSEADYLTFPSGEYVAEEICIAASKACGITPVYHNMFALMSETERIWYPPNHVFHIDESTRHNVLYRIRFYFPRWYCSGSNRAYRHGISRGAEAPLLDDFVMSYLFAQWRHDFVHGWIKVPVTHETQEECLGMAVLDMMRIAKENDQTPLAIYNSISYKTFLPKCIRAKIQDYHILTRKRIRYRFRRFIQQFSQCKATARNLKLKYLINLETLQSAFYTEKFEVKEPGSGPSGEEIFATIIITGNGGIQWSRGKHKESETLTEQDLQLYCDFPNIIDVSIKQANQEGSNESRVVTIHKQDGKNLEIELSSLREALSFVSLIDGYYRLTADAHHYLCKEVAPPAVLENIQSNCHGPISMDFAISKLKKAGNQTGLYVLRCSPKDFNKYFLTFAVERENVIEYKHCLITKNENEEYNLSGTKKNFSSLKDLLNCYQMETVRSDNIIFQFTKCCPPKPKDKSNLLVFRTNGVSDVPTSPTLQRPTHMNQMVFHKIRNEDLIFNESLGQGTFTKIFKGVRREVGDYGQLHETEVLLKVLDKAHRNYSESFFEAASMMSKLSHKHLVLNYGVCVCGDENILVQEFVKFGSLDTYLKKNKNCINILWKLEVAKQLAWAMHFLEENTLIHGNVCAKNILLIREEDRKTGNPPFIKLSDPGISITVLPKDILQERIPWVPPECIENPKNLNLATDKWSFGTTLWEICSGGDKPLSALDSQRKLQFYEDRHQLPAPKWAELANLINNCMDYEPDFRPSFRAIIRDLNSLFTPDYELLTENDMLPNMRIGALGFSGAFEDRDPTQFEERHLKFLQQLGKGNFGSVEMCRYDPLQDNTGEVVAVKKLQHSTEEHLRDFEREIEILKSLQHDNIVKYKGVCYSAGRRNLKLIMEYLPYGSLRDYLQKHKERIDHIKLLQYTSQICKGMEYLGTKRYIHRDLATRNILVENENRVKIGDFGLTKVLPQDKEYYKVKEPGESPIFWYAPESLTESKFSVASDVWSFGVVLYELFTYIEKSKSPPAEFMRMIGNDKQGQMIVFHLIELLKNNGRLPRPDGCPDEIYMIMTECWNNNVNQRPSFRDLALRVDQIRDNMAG
Method: as §1

[3] = Pharmacokinetic experiments in Beagles; type: in vivo; conditions: single administration; for half-life: read-out: Terminal t1/2 (converted)
Method: Experimental animals: Beagles, male and female; body weight: 7-9 kg;
Preparation of test samples: the compound (Ia) of the present invention was formulated into 2.5 mg/mL (for intravenous administration) and 2.0 mg/mL (for oral administration) for use. Routes of administration: oral/intravenous injection. Dosing capacity and frequency: 2 mL/kg (intravenous injection) or 5 mL/kg (oral), single administration.
Sample collection: blood was collected at the following time points: post-dose at 5 min, 15 min, 30 min, 1 hr, 2 hrs, 4 hrs, 8 hrs, and 24 hrs.
Sample analysis: The collected samples were tested using the LC-MS/MS method. The instrument model is API4000.
Pharmacokinetic data analysis: WinNolin was used to fit and calculate the obtained plasma concentration data according to the non-compartmental model method.

JAK3 = target: T2, JAK3 (Homo sapiens, UniProt P52333); experiment: Enzyme activity inhibition, Caliper Mobility Shift Assay; type: biochemical; conditions: read-out: Kinase inhibitory activity (IC50, nM) JAK3
T2 sequence (P52333 1-1124): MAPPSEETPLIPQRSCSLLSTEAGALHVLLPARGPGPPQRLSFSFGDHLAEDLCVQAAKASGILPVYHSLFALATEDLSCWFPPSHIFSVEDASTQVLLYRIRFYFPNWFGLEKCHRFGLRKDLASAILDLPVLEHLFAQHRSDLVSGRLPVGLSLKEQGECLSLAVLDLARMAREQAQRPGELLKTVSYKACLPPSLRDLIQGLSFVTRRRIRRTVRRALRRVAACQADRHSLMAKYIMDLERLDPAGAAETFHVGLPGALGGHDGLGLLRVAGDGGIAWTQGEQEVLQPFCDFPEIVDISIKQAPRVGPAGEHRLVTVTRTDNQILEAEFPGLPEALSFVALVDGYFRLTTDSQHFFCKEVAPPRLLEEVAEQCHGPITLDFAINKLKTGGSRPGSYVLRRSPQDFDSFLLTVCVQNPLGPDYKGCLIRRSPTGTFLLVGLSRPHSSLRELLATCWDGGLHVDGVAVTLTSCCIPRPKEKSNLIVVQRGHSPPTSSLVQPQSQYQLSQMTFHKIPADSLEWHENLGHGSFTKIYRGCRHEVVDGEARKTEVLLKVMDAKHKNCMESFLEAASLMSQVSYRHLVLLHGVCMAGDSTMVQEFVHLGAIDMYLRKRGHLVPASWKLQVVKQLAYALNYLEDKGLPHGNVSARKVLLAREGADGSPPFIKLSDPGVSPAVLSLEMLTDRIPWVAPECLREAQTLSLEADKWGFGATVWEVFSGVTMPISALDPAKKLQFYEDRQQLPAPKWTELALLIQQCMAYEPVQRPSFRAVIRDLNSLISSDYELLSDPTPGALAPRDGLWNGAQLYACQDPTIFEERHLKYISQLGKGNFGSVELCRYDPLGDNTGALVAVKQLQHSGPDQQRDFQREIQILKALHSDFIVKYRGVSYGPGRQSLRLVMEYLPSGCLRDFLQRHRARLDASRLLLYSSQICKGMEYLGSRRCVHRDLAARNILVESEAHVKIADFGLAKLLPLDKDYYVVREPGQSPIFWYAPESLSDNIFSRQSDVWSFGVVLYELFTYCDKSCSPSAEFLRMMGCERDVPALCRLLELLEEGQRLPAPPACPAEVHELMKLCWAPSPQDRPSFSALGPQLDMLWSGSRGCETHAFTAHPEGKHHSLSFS
Method: as §1

TYK2 = TYK2 (Homo sapiens, UniProt P29597); experiment: as above; type: biochemical; conditions: read-out: Kinase inhibitory activity (IC50, nM) TYK2
Chain of TYK2 (P29597 whole entry): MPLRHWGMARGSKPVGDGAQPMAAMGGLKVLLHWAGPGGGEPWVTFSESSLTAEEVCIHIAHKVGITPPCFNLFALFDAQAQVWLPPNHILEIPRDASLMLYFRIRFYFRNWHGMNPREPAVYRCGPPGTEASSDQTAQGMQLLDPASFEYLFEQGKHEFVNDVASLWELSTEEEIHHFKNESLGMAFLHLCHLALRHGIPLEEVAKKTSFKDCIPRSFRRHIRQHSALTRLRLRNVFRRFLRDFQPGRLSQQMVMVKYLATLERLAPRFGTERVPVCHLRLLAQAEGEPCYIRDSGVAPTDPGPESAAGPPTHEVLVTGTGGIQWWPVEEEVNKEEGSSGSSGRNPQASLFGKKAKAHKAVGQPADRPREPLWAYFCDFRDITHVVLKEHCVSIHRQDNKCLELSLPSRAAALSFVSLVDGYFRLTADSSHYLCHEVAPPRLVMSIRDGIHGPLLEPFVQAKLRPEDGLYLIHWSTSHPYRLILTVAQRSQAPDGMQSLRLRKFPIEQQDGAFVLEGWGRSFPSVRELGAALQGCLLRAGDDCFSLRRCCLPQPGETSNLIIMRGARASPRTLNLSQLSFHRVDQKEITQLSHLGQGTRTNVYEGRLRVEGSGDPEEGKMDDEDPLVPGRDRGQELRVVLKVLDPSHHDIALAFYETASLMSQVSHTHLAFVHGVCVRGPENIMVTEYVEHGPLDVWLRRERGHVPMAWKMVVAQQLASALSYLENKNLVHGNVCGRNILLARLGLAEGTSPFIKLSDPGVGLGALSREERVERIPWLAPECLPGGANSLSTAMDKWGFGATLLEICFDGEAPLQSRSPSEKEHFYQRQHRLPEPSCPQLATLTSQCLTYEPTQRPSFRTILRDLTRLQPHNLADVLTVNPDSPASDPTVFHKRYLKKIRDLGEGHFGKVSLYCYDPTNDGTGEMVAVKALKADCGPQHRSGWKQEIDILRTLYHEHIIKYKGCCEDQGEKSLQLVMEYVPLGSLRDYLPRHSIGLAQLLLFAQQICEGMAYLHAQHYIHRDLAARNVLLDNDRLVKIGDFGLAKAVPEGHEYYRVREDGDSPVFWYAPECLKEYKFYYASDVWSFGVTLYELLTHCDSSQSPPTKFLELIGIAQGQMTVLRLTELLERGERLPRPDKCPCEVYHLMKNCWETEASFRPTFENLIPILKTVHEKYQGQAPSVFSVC
Method: as §1

[4] = both sexes, beagle, dog, plasma, intravenous injection, 5 mg/kg
[5] = both sexes, beagle, dog, plasma, oral, 10 mg/kg

Structure (SMILES) | IC50 (hERG) | animal clinical scores [1] | paw volumes [1] | animal body weight increase versus vehicle group [1] | toxic side effects ([2]; 30 mg/kg/day) | organ tissues, blood biochemical parameters versus vehicle control group ([2]; rats) | inhibitory effects on JAK2 kinase (JAK2) | IC50 (JAK2) | further results
CCS(=O)(=O)N1CCC(CC#N)(n2ccc(-c3ncnc4[nH]ccc34)c2)CC1 [Compound of formula Ib] | > 30000 nM | almost close to the normal group | almost close to the normal group | greater increases in animal body weight than that of the vehicle group | no obvious toxic side effects | no significant difference | very strong inhibitory effects | 0.4 nM | IC50 (JAK1): 31 nM; selective inhibitory activities (JAK2; JAK2 versus the other kinases tested): good selective inhibitory activities
CCS(=O)(=O)N1CCC(CC#N)(n2cc(-c3ncnc4[nH]ccc34)cn2)CC1 [Compound of formula Ia] | > 30000 nM | almost close to the normal group | almost close to the normal group | greater increases in animal body weight than that of the vehicle group | no obvious toxic side effects | no significant difference | very strong inhibitory effects | 0.2 nM | AUC(0-t) [3, 4]: 10900 ng·h/mL; MRT inf [3, 4]: 4.16 h; clearance [3, 4]: 7.5 mL/min/kg; half-life [3, 4]: 4.78 h; Vd ([3]; both sexes, beagle, dog, plasma, intravenous injection, 5 mg/kg, read-out: Vss): 1.85 L/kg; AUC(0-t) [3, 5]: 10600 ng·h/mL; Cmax [3, 5]: 2500 ng/mL; Tmax [3, 5]: 0.25 h; half-life [3, 5]: 5.79 h; F ([3]; oral, 10 mg/kg): 49.4%; IC50 (JAK3): 27 nM; IC50 (TYK2): 7.3 nM
CCS(=O)(=O)N1CC(CC#N)(n2cc(-c3ncnc4[nH]ccc34)cn2)C1 [Baricitinib, reference compound] | – | – | – | – | certain toxic side effects | – | – | – | thymus and spleen tissues size ([2]; rats, 30 mg/kg/day, same experiment): significantly reduced (a quarter of the normal size)
